Assay results taken from patent publication US11806555B2, “Methods for treating hair loss disorders” (THE TRUSTEES OF COLUMBIA UNIVERSITY IN THE CITY OF NEW YORK, priority 2010, dated 2023).
“Also recorded” adds a separate entry of the source. Where two headings read alike, the source gives them in different places.

Experiments:
[1] = all dose groups; cited from earlier work
[2] = test system: Th1 and Th17 transcript markers and keratin 16; conditions: cited from earlier work
[3] = rodent; cited from earlier work
[4] = Active (n = 149); cited from earlier work
[5] = test system: epidermal thickening and dermal inflammation; conditions: in vivo; cited from earlier work
[6] = test system: telogen hair follicles of normal C57BL/6 mice; assay: induction of anagen by topical treatment of normal mice in telogen; assay type: in vivo, mouse; conditions: for proliferation in the telogen hair follicle (Ki67) / keratinocyte matrix cells / induction of anagen: vs vehicle; for induction of anagen: topical, mice in telogen
Experimental: 7-8 weeks old animals in telogen were treated with controls or JAK STAT inhibitors.
Right half of each mouse was administered topical drug, left half of each mouse was treated with DMSO alone.
To test whether inhibition of JAK-STAT signaling could therefore trigger the telogen-to-anagen transition, a topical JAK3 inhibitor was applied to test whether anagen could be induced in normal mouse skin in telogen.

[7] = test system: alopecia areata in grafted C3H/HeJ mice; conditions: for CD8+NKG2D+ T cells in skin and cutaneous lymph nodes: flow cytometry; for ALADIN score / transcriptional signature / GEDI (CTL and IFN signatures): skin; for development / onset of alopecia areata: systemic treatment from time of grafting
Text: Alopecia areata is graded based on severity, location of inflammatory cells, types and relative numbers of inflammatory cells (granulocytes, mast cells, lymphocytes), follicular dystrophy, etc.
Protocol #1: In the prevention setting, recipient mice will be treated beginning the first week after grafting.
Transfer of Alopecia Areata using grafted C3H/HeJ skin. Normal-haired C3H/HeJ mice were grafted at 8 weeks of age (during the second telogen) with skin from a C3H/HeJ mouse that developed AA spontaneously, as described previously^7. In brief, mice spontaneously affected with AA were euthanized, full thickness skin grafts of approximately 2 cm in diameter were removed and grafted to normal-haired C3H/HeJ mice.
Flow cytometric analysis of skin and cutaneous lymph nodes. To make a single cell suspension of mouse skin, fat was removed from the overlying skin in cold PBS and then incubated in collagenase type I (2 mg/ml in PBS) at 32° C. for 75 minutes. After digestion the skin was minced in RPMI/10% fetal bovine serum, filtered through a 70 mM cell strainer, and centrifuged at 1100 g for 5 minutes. The pellet was resuspended in RPMI/10% fetal bovine serum, filtered through a 40 mM cell strainer and spun at 400 g for 5 mins. The pellet was resuspended in FACs buffer (PBS/5% BSA), DAPI to gate on live cells and staining antibodies (listed in Supplemental Data). Cutaneous lymph nodes were pooled minced in RPMI, filtered through a 40 mM cell strainer, centrifuged at 400 g for 5 minutes stained and analysed on a BD LSR II flow cytometer.
Prevention and Treatment Studies. For prevention studies, mice were treatment beginning the day of grafting (n=5-10 mice per group).
(§1) ALADIN scores. The IFN and CTL signatures were used to develop a bivariate score statistic. Individual signature IFN and CTL scores were determined following procedures used in human SLE^,S9,S10. The sets of genes selected to comprise our IFN and CTL signatures were CD8A, GZMB, and ICOS for the CTL signature, and CXCL9, CXCL10, CXCL11, STAT1, and MX1 for the IFN signature. The scores for the prevention mice were calculated in relation to the sham mice; whereas, the scores for the topical treatment experiments were calculated relative to all the samples at week zero.

[8] = C3H/HeJ, mouse, in vivo, 10 mg/kg/day
[9] = test system: IL-15 triggered pSTAT3 activation; assay: IL-15-induced Stat3 activation in T cells; assay type: cell-based; conditions: T cells / CTL effectors
IL-15 signaling = conditions: human whole blood assays; cited from earlier work
dermal sheath cells = assay: IL-15-induced LAK cell cytotoxicity against dermal sheath cells; assay type: cell-based, mouse
Experimental: In vitro cytotoxicity assays. Determination of specific killing of target cells was performed using CFSE-labeled DS cells at targets mixed with different ratios of effector cells incubated for 5 hours at 37° C. 5% CO2 with or without neutralizing rat anti-mouse NKG2D antibody (20 ug/ml) (Biolegend, CX5). Specific lysis of DS cells was determined flow cytometrically by measuring cell death of CFSE+DS cells using Annexin V/7-AAD.

[10] = test system: C3H/HeJ mice with long-standing alopecia areata; conditions: for hair regrowth / reversal of alopecia areata: systemic (pump), established AA; for CD8+NKG2D+ T cells in skin and cutaneous lymph nodes: flow cytometry
Experimental: (§2) To make a single cell suspension of mouse skin, fat was removed from the overlying skin in cold PBS and then incubated in collagenase type I (2 mg/ml in PBS) at 32° C. for 75 minutes. After digestion the skin was minced in RPMI/10% fetal bovine serum, filtered through a 70 mM cell strainer, and centrifuged at 1100 g for 5 minutes. The pellet was resuspended in RPMI/10% fetal bovine serum, filtered through a 40 mM cell strainer and spun at 400 g for 5 mins. The pellet was resuspended in FACs buffer (PBS/5% BSA), DAPI to gate on live cells and staining antibodies (listed in Supplemental Data). Cutaneous lymph nodes were pooled minced in RPMI, filtered through a 40 mM cell strainer, centrifuged at 400 g for 5 minutes stained and analysed on a BD LSR II flow cytometer.

human embryonic scalp = assay: drug treatment of human fetal scalp in vitro, hair follicle morphogenesis; assay type: cell-based; design: dose or concentration left out as unconfirmed; conditions: human embryonic scalp at 20 weeks, vs DMSO
Text: Skin was harvested and sectioned and assessed for hair follicle morphology.

[11] = test system: C3H/HeJ mice with long-standing AA; conditions: for CD8+NKG2D+ T cells in treated skin: flow cytometry
Experimental: as §2, §1

[12] = topical vs systemic administration

## N#CCC(C1CCCC1)n1cc(-c2ncnc3[nH]ccc23)cn1 (stereo not drawn) [INCB018424]
[1]
  Total Lesion Score, decrease over vehicle: ≥ 2 ×
[2]; psoriasis subjects, topical
  clinical responses: rapid clinical responses
  cutaneous Th1/Th17 cytokine responses: normalization
[2]; topical treatment
  Th1 and Th17 transcript markers and keratin 16: decreased
[3]
  half-life (t1/2): 3 to 6 h
[4]
  Adverse event: Abdominal pain, number: 3
  Adverse event: Abdominal pain, value in brackets: (2.0)
  Adverse event: Application site irritation, pruritus, number: 14
  Adverse event: Application site irritation, pruritus, value in brackets: (9.3)
  Adverse event: Back Pain, value in brackets: (3.4)
  Adverse event: Headache, number: 4
  Adverse event: Headache, value in brackets: (2.7)
  Adverse event: Influenza, number: 4
  Adverse event: Influenza, value in brackets: (2.7)
  Adverse event: Nasopharyngitis, number: 10
  Adverse event: Nasopharyngitis, value in brackets: (6.7)
  Adverse event: Sinusitis, number: 6
  Adverse event: Sinusitis, value in brackets: (4.0)
  Adverse event: Upper respiratory tract infection, number: 10
  Adverse event: Upper respiratory tract infection, value in brackets: (6.7)
[5]
  epidermal thickening and dermal inflammation: markedly reduces
  pathological skin thinning: No pathological skin thinning is observed

## CNC1CCC(N(Cc2cccc(-c3ccncc3)c2)C(=O)c2sc3ccccc3c2Cl)CC1 (stereo not drawn) [SAG]
[6]; post treatment
  time to induction of anagen: 4 to 7 days
[6]
  proliferation in the telogen hair follicle (Ki67) / keratinocyte matrix cells: marked proliferation

## CC1CCN(C(=O)CC#N)CC1N(C)c1ncnc2[nH]ccc12 (stereo not drawn) [tofacitinib]
[7]; 10 mg/kg/day Alzet pump, 5 mice
  development of cutaneous lymphadenopathy: None
[7]
  CD8+NKG2D+ T cells in skin and cutaneous lymph nodes: eliminated; also recorded: prevented
  ALADIN score / transcriptional signature: prevented the emergence
  GEDI (CTL and IFN signatures): prevented the emergence
  development / onset of alopecia areata: prevents and None and prevented and inhibited
[7]; microarray, 13 weeks of treatment vs PBS
  IFN-response chemokines and markers of CD8 cytotoxic effectors in skin: elimination
[7]; mouse, in vivo
  HF NKG2DL expression (e.g. H60 by immunostain): reduced although not completely eliminated
  durability of disease prevention after treatment withdrawal: 12 weeks
  histological signs of inflammation in skin: no histological signs of inflammation
  inflammatory biomarkers in the skin, including MHC molecules and IFN signature: down-regulated
[7]; photomicrographs, FIG. 53
  inflammatory infiltrate: normalizes
[7]; listed as CP690550
  development / onset of alopecia areata: prevention of AA
[6]; 1% daily for 3 weeks
  durability of effect: more than 1 month
[6]; mouse, in vivo
  number of hair follicles vs vehicle treated: greater
  thickness of hair follicles vs vehicle treated: greater
[6]
  induction of anagen: marked induction of anagen
  proliferation in the telogen hair follicle (Ki67) / keratinocyte matrix cells: marked proliferation
[8]
  serum levels: 30 to 40 nM
[9]
  IL-15-induced Stat3 (pSTAT3) activation: block; also recorded: inhibits
IL-15 signaling
  IL-15 signaling: inhibit
Dermal sheath cells
  IL-15-induced LAK cell cytotoxic function (dermal sheath cell cytotoxicity): inhibit
[10]
  hair regrowth / reversal of alopecia areata: complete
Human embryonic scalp
  hair follicle morphology, stage of first anagen of morphogenesis: more advanced
[11]; additional 8 weeks after withdrawal
  disease recurrence after treatment withdrawal: no evidence of disease recurrence
[11]; drug applied to back skin only
  untreated areas on the abdomen: remained alopecic
[11]
  CD8+NKG2D+ T cells in treated skin: disappearance
[11]; mouse, in vivo
  ALADIN transcriptional signature: normalization
  durability of effects after cessation of treatment: 2-3 months
  histological markers of disease: reversal
[11]; topical 0.5% daily
  time to full coat of hair: ≤ 7 weeks
[11]; topical therapy
  time to complete hair regrowth: ≤ 12 weeks
[11]; topical, daily, 0.5%
  reversal of established / long-standing AA: highly effective; also recorded: reversal

## tofacitinib
[7]; listed as JAK3 PTKi
  CD8+NKG2D+ T cells in skin and cutaneous lymph nodes: eliminating expansion
  development / onset of alopecia areata: effectively prevented
[7]; listed as JAK3i
  CD8+NKG2D+ T cells in skin and cutaneous lymph nodes: significantly decreased
[7]; listed as JAK3 inhibitor
  CD8+NKG2D+ T cells in skin and cutaneous lymph nodes: completely eliminated
  development / onset of alopecia areata: do not develop alopecia
[7]; immunohistochemical staining
  expression of CD4, CD8, MHC class I and II in skin: significantly decreased
[7]; mouse, in vivo
  inflammatory biomarkers in the skin, including MHC molecules and IFN signature: ablating
[7]; osmotic pump
  inflammatory profiles (skin microarray, T cell infiltrate stains, serum markers): decreased inflammatory profiles
[7]; osmotic pump, by six weeks following transplantation, PBS 4/4, vehicle pump 2/2
  mice that developed alopecia: 0/5
[7]
  ALADIN score / transcriptional signature: normalization
  GEDI (CTL and IFN signatures): reduction
[6]; mouse, in vivo
  effect on anagen induction compared with SAG: comparable
  time to induction and growth of robust pigmented anagen hairs: 1-2 weeks
[6]
  induction of anagen: striking anagen induction
[10]; listed as JAK3i
  CD8+NKG2D+ T cells in skin and cutaneous lymph nodes: eliminated
  hair regrowth / reversal of alopecia areata: induced hair regrowth all over the body
[10]; listed as JAK3 inhibitor
  CD8+NKG2D+ T cells in skin and cutaneous lymph nodes: elimination; also recorded: devoid
  hair regrowth / reversal of alopecia areata: exhibit hair regrowth
[10]; mouse, in vivo
  persistence of effect after cessation of treatment: 2-3 months
[11]
  CD8+NKG2D+ T cells in treated skin: significantly decreased
[11]; [12]
  pigmentation of regrown hair coat: darkly pigmented
  speed of hair regrowth: very rapid
